One assay relates to CCRF-CEM. The assay can be described thus: CCK-8 proliferation, CCRF-CEM. The class given is cell-based, Human. The settings on record: Homo sapiens, CCRF-CEM; CCK-8; 96 hours; read-out: Inhibitory activity (IC50) on tumor cell proliferation, CCRF-CEM. An outline of the steps:
(§1)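 Tumor cells were cultured at 37°C with 5% CO2, seeded, and after 24h treated with compounds at 10 concentrations starting at 10µM (5-fold serial dilutions).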

For a further assay, the system named is DU-145. The assay can be described thus: CCK-8 proliferation, DU-145. Type of assay: cell-based. The settings on record: Homo sapiens, 96 hours, read-out: Inhibitory activity (IC50) on tumor cell proliferation, DU-145. As for the experimental part: (§2) The tumor cells used herein were cultured in a cell culture medium listed in table A1 at 37°C in an incubator with 5% CO2. Prior to experimentation, all cell lines used were correctly identified by STR profiling, and tested negative for mycoplasma contamination using a mycoplasma detection kit through routine screenings. Table A1. Tumor cells and cell culture medium used in the present disclosure
(§3) IC50 values of the compounds of the present disclosure (including the compounds in Table 1, and compounds of examples) were measured using the Meilun Cell Counting Kit-8 kit from Dalian Meilun Biotech Co., Ltd. Assay details are as follows: tumor cells were seeded in a 96-well plate at a density listed in Table A2. After 24h, 100 µL of the inoculated cells were treated with 0.5µL of the compounds of the present disclosure (including the compounds in Tables 1 and 2, and compounds of examples) at 10 different successively decreasing concentrations (starting at the highest concentration of 10µM; 5-fold serial dilutions). After the cells were treated with the compounds of the present disclosure for a period of time, the cell viability detection reagent was added to the culture medium for cell viability assessment according to the instructions provided with the CCK-8 kit. […] The growth inhibition of the compounds of the present disclosure on cells was plotted by Prism Graphpad software, and the IC50 values of the compounds of the present disclosure were calculated therefrom. […] Seeding protocol and treatment time for tumor cells

Another assay concerns Jurkat. The assay can be described thus: CCK-8 proliferation, Jurkat. Type of assay: cell-based, Human. The settings on record: Homo sapiens, Jurkat; CCK-8; 96 hours; read-out: Inhibitory activity (IC50) on tumor cell proliferation, Jurkat. The essentials:
as §1

The test system of another assay is SU-DHL-4. The assay can be described thus: CCK-8 proliferation, SU-DHL-4. The settings on record: Homo sapiens, 72 hours, read-out: Inhibitory activity (IC50) on tumor cell proliferation, SU-DHL-4. The class given is cell-based. The protocol: as §2, §3
The target of assay [1] is T1, human Cereblon WT GST-tagged protein (Homo sapiens, UniProt Q96SW2).
T1 construct: purchased CISBIO 64BDCRBNPEH
T1 sequence (Q96SW2 whole entry): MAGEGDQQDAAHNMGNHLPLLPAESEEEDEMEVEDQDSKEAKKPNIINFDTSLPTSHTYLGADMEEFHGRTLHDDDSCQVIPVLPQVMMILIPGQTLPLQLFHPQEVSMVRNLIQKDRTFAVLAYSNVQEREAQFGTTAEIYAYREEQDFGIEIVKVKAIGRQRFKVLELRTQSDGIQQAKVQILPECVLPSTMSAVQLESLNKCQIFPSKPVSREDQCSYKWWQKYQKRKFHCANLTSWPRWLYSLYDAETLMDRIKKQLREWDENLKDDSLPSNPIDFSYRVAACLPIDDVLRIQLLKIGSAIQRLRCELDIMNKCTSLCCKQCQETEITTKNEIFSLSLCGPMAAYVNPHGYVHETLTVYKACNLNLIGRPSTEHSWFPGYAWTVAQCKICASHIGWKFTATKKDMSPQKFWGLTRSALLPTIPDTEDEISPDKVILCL
Kind of assay: CRBN binding, HTRF (CEREBLON BINDING kit). The settings on record: Table II-2, CRBN binding screening, HTRF. An outline of the steps:
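After 3 h at room temperature, emission at 665 and 620 nm was measured in a homogeneous time-resolved fluorescence format. Compounds competed with a Thalidomide-Re probe for GST-tagged wild-type human CRBN, which was labelled with a Eu anti-GST antibody.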

A further assay deals with T2, CDK9 (Homo sapiens, UniProt P50750).
T2 construct: evaluate the effects of the compounds of the present disclosure on the expression of target proteins in cells; endogenous in cells; host or cells: MDA-MB-231
T2 sequence (P50750 whole entry): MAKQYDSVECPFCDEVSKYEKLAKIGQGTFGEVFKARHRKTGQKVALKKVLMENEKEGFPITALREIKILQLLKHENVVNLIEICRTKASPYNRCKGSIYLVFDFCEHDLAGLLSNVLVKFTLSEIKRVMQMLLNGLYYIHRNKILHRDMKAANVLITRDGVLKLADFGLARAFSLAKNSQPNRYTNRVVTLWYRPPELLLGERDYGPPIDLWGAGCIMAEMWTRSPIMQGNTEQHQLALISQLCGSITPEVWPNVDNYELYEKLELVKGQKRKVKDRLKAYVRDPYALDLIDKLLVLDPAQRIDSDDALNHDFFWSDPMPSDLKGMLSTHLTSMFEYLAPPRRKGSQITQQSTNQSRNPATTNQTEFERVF
The assay can be described thus: Western blot degradation of CDK9 (MDA-MB-231 Cell). The class given is cell-based. The settings on record: Table D13. As for the experimental part:
(§4) Conventional Western blot assay was performed to evaluate the effects of the compounds of the present disclosure on the expression of target proteins in cells.
(§5) (1) Cell Seeding and Protein Harvesting: The selected cells were processed according to the cell seeding procedure and protein harvesting procedure in Table III-2. Table III-2 Cell Seeding and Protein Harvesting Procedures
(§6) (2) To the collected supernatant, 5X SDS sample loading buffer was added, followed by denaturation at 95°C for 5 minutes. The denatured samples were then separated by SDS-PAGE electrophoresis on a polyacrylamide gel. Proteins were transferred to a nitrocellulose membrane (0.45 µm NC membrane), blocked with blocking buffer at room temperature for 1 hour, and subjected to antibody incubation and development procedures according to the antibody manufacturer's instructions (Cell Signaling Technology).
(§7) Half-Maximal Degradation Concentration value (the drug concentration required for degrading proteins by 50%, abbreviated as DC50) reads method: comparing the grayscale values of Western blot bands from drug-treated samples with those from blank DMSO-treated controls, and identifying the drug concentration range at which the grayscale value is half that of the DMSO-treated control bands.
(§8) DC50 values can be calculated using ImageJ software to measure grayscale values of Western blot bands from drug-treated samples. The concentration-response curve is fitted to estimate the drug concentration corresponding to half the grayscale value.
(§9) Target protein remaining (%) refers to the percentage of target protein remaining in hPBMC cells after treatment with protein degrader compounds.
(§10) Calculation method for target protein remaining (%): Use ImageJ software to measure grayscale values of Western blot bands from drug (protein degrader)-treated samples. The grayscale value of drug-treated bands is divided by that of internal control protein bands, and the resulting quotient is normalized to obtain the relative percentage of remaining target protein after protein degrader treatment.
(§11) Target protein degradation rate (%) = 100% - target protein remaining (%).

The next assay relates to TMD8. The assay can be described thus: CCK-8 proliferation, TMD8. The class given is cell-based. The settings on record: Homo sapiens, TMD8; CCK-8; 72 hours; read-out: Inhibitory activity (IC50) on tumor cell proliferation, TMD8. The protocol:
as §2, §3

The next assay relates to BXPC-3. Kind of assay: CCK-8 proliferation, BXPC-3. Type of assay: cell-based. The settings on record: Homo sapiens, 96 hours, read-out: Inhibitory activity (IC50) on tumor cell proliferation, BXPC-3. The protocol:
as §2, §3

The subject of the next assay is H520. Kind of assay: CCK-8 proliferation, H520. Type of assay: cell-based. The settings on record: Homo sapiens, NCI-H520, 96 hours, read-out: Inhibitory activity (IC50) on tumor cell proliferation, H520. As for the experimental part: as §2, §3
The test system of the next assay is THP-1. Kind of assay: CCK-8 proliferation, THP-1. Type of assay: cell-based. The settings on record: Homo sapiens, 72 hours, read-out: Inhibitory activity (IC50) on tumor cell proliferation, THP-1. An outline of the steps:
as §1

The subject of another assay is MGC-803. Kind of assay: CCK-8 proliferation, MGC-803 (heads: MGC80-3, MGC803). The settings on record: Homo sapiens, MGC-803; CCK-8; 72 hours; read-out: Inhibitory activity (IC50) on tumor cell proliferation, MGC80-3. The class given is cell-based, Human. The essentials:
as §1

The target in a further assay is T3, ER (Homo sapiens, UniProt P03372).
T3 construct: evaluate the effects of the compounds of the present disclosure on the expression of target proteins in cells; endogenous in cells; host or cells: MCF-7
T3 sequence (P03372 1-595): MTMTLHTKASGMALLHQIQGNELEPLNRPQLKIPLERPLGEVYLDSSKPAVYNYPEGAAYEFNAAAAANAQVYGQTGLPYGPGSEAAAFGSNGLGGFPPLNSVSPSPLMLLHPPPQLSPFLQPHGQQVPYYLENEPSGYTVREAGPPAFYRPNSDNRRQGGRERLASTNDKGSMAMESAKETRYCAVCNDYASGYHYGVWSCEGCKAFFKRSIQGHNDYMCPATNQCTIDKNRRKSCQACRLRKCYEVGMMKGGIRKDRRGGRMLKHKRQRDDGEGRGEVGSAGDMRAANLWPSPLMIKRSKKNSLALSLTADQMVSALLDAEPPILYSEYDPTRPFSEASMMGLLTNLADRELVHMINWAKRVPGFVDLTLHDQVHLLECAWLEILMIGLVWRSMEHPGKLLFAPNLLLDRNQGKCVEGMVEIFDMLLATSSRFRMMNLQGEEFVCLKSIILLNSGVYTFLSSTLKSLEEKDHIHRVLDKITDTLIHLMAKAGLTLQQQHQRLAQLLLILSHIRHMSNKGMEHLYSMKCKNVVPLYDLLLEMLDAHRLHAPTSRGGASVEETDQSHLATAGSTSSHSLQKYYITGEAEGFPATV
Kind of assay: Western blot degradation of ER (MCF-7 Cell). The class given is cell-based. The settings on record: Table D12. The protocol:
as §4, §5, §6, §7, §8, §9, §10, §11

Structures are written as SMILES.

Turning to `O=C1CCC(c2ccc(CN3CCC(n4cc(NC(=O)c5coc(-c6ccnc(NCC(F)(F)F)c6)n5)c(C(F)F)n4)CC3)cc2)C(=O)N1` (stereo not drawn) [GT-04121, N-(3-(difluoromethyl)-1-(1-(4-(2,6-dioxopiperidin-3-yl)benzyl)piperidin-4-yl)-1H-pyrazol-4-yl)-2-(2-((2,2,2-trifluoroethyl)amino)pyridin-4-yl)oxazole-4-carboxamide], the IC50 with CCRF-CEM lay in the range of 10 to 50 nM; in the assay on DU-145, 100 to 500 nM; in the assay with Jurkat, 100 to 500 nM; in the assay on SU-DHL-4, 500 to 1000 nM; in the assay on TMD8 it was 100 to 500 nM. Also, the “Inhibition rate (%) at 0.5µM” value in assay [1] (at 0.5µM) was “a2 (20% < a2 ≤ 30%)”. Moreover, in assay [1] (at 2 µM), the “Inhibition rate (%) at 2 µM” value is recorded as “a6 (60% < a6 ≤ 80%)”. The “Degradation of substrate protein CDK9 (substrate protein remaining %)” value at CDK9 was “A (A is defined as 0% ≤ substrate protein remaining % ≤ 80%)”.

With `C[C@]12CC[C@H](O)CC1=CC[C@@H]1[C@@H]2CC[C@]2(C)C(c3cccnc3)=CC[C@@H]12` [abiraterone], the IC50 in the assay with DU-145, with BXPC-3, in the assay with H520, in the assay on THP-1 and in the assay with MGC-803 was above 10000 nM each time.

Regarding `O=C(NC1CCNCC1)c1[nH]ncc1NC(=O)c1c(Cl)cccc1Cl` [AT7519, reference compound], the IC50 in the assay on CCRF-CEM was in the range of 500 to 1000 nM; with DU-145, 500 to 1000 nM; in the assay with Jurkat, 100 to 500 nM; in the assay with SU-DHL-4 it was 100 to 500 nM; in the assay on TMD8, 500 to 1000 nM.

Regarding `Cn1ncc(-c2nc(NC3CCN(Cc4ccc(C5CCC(=O)NC5=O)c(F)c4)CC3)ncc2Cl)c1CC1CC1` (stereo not drawn) [GT-04051, 3-(4-((4-((5-chloro-4-(5-(cyclopropylmethyl)-1-methyl-1H-pyrazol-4-yl)pyrimidin-2-yl)amino)piperidin-1-yl)methyl)-2-fluorophenyl)piperidine-2,6-dione], the IC50 with CCRF-CEM was in the range of 500 to 1000 nM; in the assay on DU-145 it was 100 to 500 nM; with SU-DHL-4, 500 to 1000 nM; with TMD8, 500 to 1000 nM. Moreover, the “Degradation of substrate protein CDK9 (substrate protein remaining %)” value on CDK9 is listed as “A (A is defined as 0% ≤ substrate protein remaining % ≤ 80%)”.

As for `CCC(=C(c1ccc(O)cc1)c1ccc(N2CCN(Cc3ccc(C4CCC(=O)NC4=O)cc3)CC2)cc1)c1ccc(O)cc1` (stereo not drawn) [GT-04149, 3-(4-((4-(4-(1,2-bis(4-hydroxyphenyl)but-1-en-1-yl)phenyl)piperazin-1-yl)methyl)phenyl)piperidine-2,6-dione], the “Degradation of substrate protein ER (substrate protein remaining %)” value on ER was “A (A is defined as 0% ≤ substrate protein remaining % ≤ 80%)”.

On to `O=C1CCC(c2ccc(CN3CCC(n4cc(NC(=O)c5coc(-c6ccnc(NCC(F)(F)F)c6)n5)c(C(F)F)n4)CC3)cc2F)C(=O)N1` (stereo not drawn) [GT-04087, N-(3-(difluoromethyl)-1-(1-(4-(2,6-dioxopiperidin-3-yl)-3-fluorobenzyl)piperidin-4-yl)-1H-pyrazol-4-yl)-2-(2-((2,2,2-trifluoroethyl)amino)pyridin-4-yl)oxazole-4-carboxamide], for which the IC50 in the assay on CCRF-CEM was in the range of 1 to 10 nM; in the assay with DU-145 it was 500 to 1000 nM; in the assay with Jurkat, 10 to 50 nM; in the assay on SU-DHL-4 it was 500 to 1000 nM; with TMD8, 50 to 100 nM. In addition, the “Degradation of substrate protein CDK9 (substrate protein remaining %)” value on CDK9 is “A (A is defined as 0% ≤ substrate protein remaining % ≤ 80%)”.

As for `Cn1ncc(-c2nc(NC3CCN(Cc4ccc(C5CCC(=O)NC5=O)cc4)CC3)ncc2Cl)c1CC1CC1` (stereo not drawn) [GT-04050, 3-(4-((4-((5-chloro-4-(5-(cyclopropylmethyl)-1-methyl-1H-pyrazol-4-yl)pyrimidin-2-yl)amino)piperidin-1-yl)methyl)phenyl)piperidine-2,6-dione], the IC50 in the assay on DU-145 fell in the range of 10 to 50 nM; in the assay on Jurkat it was 100 to 500 nM. For the same compound, the “Degradation of substrate protein CDK9 (substrate protein remaining %)” value on CDK9 is “A (A is defined as 0% ≤ substrate protein remaining % ≤ 80%)”.

As to `Cc1ccc(-c2c(C)noc2C)cc1N(CC1CCN(Cc2ccc(N3CCC(=O)NC3=O)c(F)c2)CC1)c1ccc(C2(C#N)CC2)cc1` [GT-04843, 1-(4-((5-(3,5-dimethylisoxazol-4-yl)-2-methylphenyl)((1-(4-(2,4-dioxotetrahydropyrimidin-1(2H)-yl)-3-fluorobenzyl)piperidin-4-yl)methyl)amino)phenyl)cyclopropane-1-carbonitrile], the IC50 in the assay with BXPC-3 lay in the range of 100 to 500 nM; in the assay on H520, 500 to 1000 nM; in the assay on THP-1, 500 to 1000 nM; with MGC-803 it was 100 to 500 nM.

On to `O=C1CCC(Nc2cccc(CN3CCN(C4CCN(c5ccc([C@@H]6c7ccc(O)cc7CC[C@@H]6c6ccccc6)cc5)CC4)CC3)c2)C(=O)N1` (stereo partly drawn) [GT-04674, 3-((3-((4-(1-(4-((1R,2S)-6-hydroxy-2-phenyl-1,2,3,4-tetrahydronaphthalen-1-yl)phenyl)piperidin-4-yl)piperazin-1-yl)methyl)phenyl)amino)pip eridine-2,6-dione], for which the “Degradation of substrate protein ER (substrate protein remaining %)” value at ER was “A (A is defined as 0% ≤ substrate protein remaining % ≤ 80%)”.

As to `N#CC1(CNc2nc(-c3cc(NC4CCN(Cc5ccc(C6CCC(=O)NC6=O)cc5)CC4)ncc3Cl)cs2)CCOCC1` (stereo not drawn) [GT-04074, 4-(((4-(5-chloro-2-((1-(4-(2,6-dioxopiperidin-3-yl)benzyl)piperidin-4-yl)amino)pyridin-4-yl)thiazol-2-yl)amino)methyl)tetrahydro-2H-pyran-4-carbonitrile], the “Degradation of substrate protein CDK9 (substrate protein remaining %)” value at CDK9 is given as “A (A is defined as 0% ≤ substrate protein remaining % ≤ 80%)”.

The record behind these values is patent EP4678638A1, “NEW E3 UBIQUITIN LIGASE LIGAND, PROTEIN DEGRADATION AGENT AND USE THEREOF” (priority 2023, dated 2024).
